Experimental data: patent US20250145631A1, “HETEROCYCLIC COMPOUND ACTING ON G12D MUTANT KRAS PROTEIN” (Astellas Pharma Inc., priority 2022, published 2025)

System: human KRAS G12D mutant-positive PK-59 pancreatic cancer cell line-derived xenograft
Assay: Anti-tumor activity in PK-59 xenograft mice (Test Example 4)
Type: in vivo
Details: 3 mg/kg into tail vein, once a week, twice in total; PK-59 xenograft nude mice
Protocol: PK-59 cells (RIKEN BioResearch Center, RCB1901) were cultured using RPMI 1640 medium containing 10% fetal bovine serum in the presence of 5% CO2 at 37° C. The PK-59 cells were collected and suspended in PBS, and after adding an equal amount of Matrigel (from Becton, Dickinson and Company), 4- to 5-week-old male nude mice (BALB/c-nu (nu/nu), from Charles River Laboratories Japan) were subcutaneously inoculated with the cell suspension of 1.0 to 2.0×10^7 cells/mL was subcutaneously inoculated in a volume of 100 μL per mouse. About two weeks after the inoculation, the mice were divided into groups so that all the groups had approximately the same tumor volume and body weight, and administration of test compounds was started on the next day. The study was conducted for 5 mice each of a vehicle group and test compound administration groups. The compounds were dissolved in a solvent containing ethanol (from FUJIFILM Wako Pure Chemical Corporation), a 5% glucose solution (from Otsuka Pharmaceutical), 1M hydrochloric acid (from Kanto Chemical Co., Inc.), 50% (2-hydroxypropyl)-P-cyclodextrin (HP-βCD) solution (from ROQUETTE), HCO-40 (from Nikko Chemicals Co., Ltd.) and 1M sodium hydroxide solution (from Kanto Chemical Co., Inc.) at a liquid amount ratio of 4:84.4:1.1:1:9:0.5. The test compounds dissolved in the respective solvents or the solvents were administered into tail vein. The administration was performed once a week and twice in total. The tumor sizes and the body weights were measured twice a week. The tumor volumes were calculated using the following equation.
[Tumor volume (mm^3)]=[Long diameter of tumor (mm)]×[Short diameter of tumor (mm)]^2×0.5
The tumor growth inhibition rate (%) by the test compounds were calculated with the tumor volumes of the test compound administration groups on the previous day of the start of the administration taken as 100% inhibition and the tumor volumes of the vehicle groups two weeks after the initial administration taken as 0% inhibition. In addition, when the tumor volume of a test compound administration group was smaller than the tumor volume on the previous day of the start of the administration, the tumor regression rate (%) by the test compound was calculated with the tumor volume on the previous day of the start of the administration taken as 0% regression and with the tumor volume 0 taken as 100% regression.

| SMILES | Anti-Tumor Activity Two Weeks After Initial Administration (tumor regression rate) [% regression] |
| --- | --- |
| CO[C@@H](C)COc1cc(O[C@H]2CCNC2)c2cc(C3CC3)c(-c3c(C)c(F)cc4[nH]ncc34)c(OCc3ccc(C(=O)N4CCN(Cc5ccc6c(c5)n(C)c(=O)n6C5CCC(=O)NC5=O)C[C@@H]4C)cc3)c2n1 (stereo partly drawn) [Example 12, 3-[5-({(3S)-4-[4-({[6-cyclopropyl-7-(6-fluoro-5-methyl-1H-indazol-4-yl)-2-[(2S)-2-methoxypropoxy]-4-{[(3S)-pyrrolidin-3-yl]oxy}quinolin-8-yl]oxy}methyl)benzoyl]-3-methylpiperazin-1-yl}methyl)-3-methyl-2-oxo-2,3-dihydro-1H-benzimidazol-1-yl]piperidine-2,6-dione] | 35 |
| Cc1c(F)cc2[nH]ncc2c1-c1c(C2CC2)cc2c(N3C[C@@H]4C[C@H]3CN4)nc(OC3CCOCC3)nc2c1OCc1ccc(C(=O)N2CCN(Cc3ccc4c(c3)n(C)c(=O)n4C3CCC(=O)NC3=O)C[C@@H]2C)cc1 (stereo partly drawn) [Example 8, 3-(5-{[(3S)-4-{4-[({(7M)-6-cyclopropyl-4-[(1S,4S)-2,5-diazabicyclo[2.2.1]heptan-2-yl]-7-(6-fluoro-5-methyl-1H-indazol-4-yl)-2-[(oxan-4-yl)oxy]quinazolin-8-yl}oxy)methyl]benzoyl}-3-methylpiperazin-1-yl]methyl}-3-methyl-2-oxo-2,3-dihydro-TH-benzimidazol-1-yl)piperidine-2,6-dione] | 28 |
| CO[C@@H](C)COc1cc(N2C[C@@H]3C[C@H]2CN3)c2cc(C3CC3)c(-c3c(C)c(F)cc4[nH]ncc34)c(OCc3ccc(C(=O)N4CCN(Cc5ccc6c(c5)n(C)c(=O)n6C5CCC(=O)NC5=O)C[C@@H]4C)cc3)c2n1 (stereo partly drawn) [Example 29, 3-(5-{[(3S)-4-{4-[({6-cyclopropyl-4-[(1S,4S)-2,5-diazabicyclo[2.2.1]heptan-2-yl]-7-(6-fluoro-5-methyl-1H-indazol-4-yl)-2-[(2S)-2-methoxypropoxy]quinolin-8-yl}oxy)methyl]benzoyl}-3-methylpiperazin-1-yl]methyl}-3-methyl-2-oxo-2,3-dihydro-1H-benzimidazol-1-yl)piperidine-2,6-dione] | 5 |
| CO[C@@H](C)COc1nc(N2C[C@@H]3C[C@H]2CN3)c2cc(C3CC3)c(-c3c(C)c(F)cc4[nH]ncc34)c(OCc3ccc(C(=O)N4CCN(Cc5ccc6c(c5)n(C)c(=O)n6C5CCC(=O)NC5=O)C[C@@H]4C)cc3)c2n1 (stereo partly drawn) [Example 10, 3-(5-{[(3S)-4-{4-[({(7M)-6-cyclopropyl-4-[(1S,4S)-2,5-diazabicyclo[2.2.1]heptan-2-yl]-7-(6-fluoro-5-methyl-1H-indazol-4-yl)-2-[(2S)-2-methoxypropoxy]quinazolin-8-yl}oxy)methyl]benzoyl}-3-methylpiperazin-1-yl]methyl}-3-methyl-2-oxo-2,3-dihydro-1H-benzimidazol-1-yl)piperidine-2,6-dione] | 28 |
